≈ marks a conversion by molar mass, not a printed value. Calls of active or inactive are those of the source. The rule behind the calls is not given here.
How the values were obtained:
[1] = system: Streptococcus pneumoniae; assay: Antibacterial activity against Streptococcus pneumoniae Mef 3855; type: functional
[2] = system: Enterococcus faecalis; assay: Antibacterial activity against Enterococcus faecalis bc11148-2; type: functional
[3] = system: Streptococcus pneumoniae; assay: Antibacterial activity against Streptococcus pneumoniae Erm 3120; type: functional
[4] = system: Streptococcus pneumoniae; assay: Antibacterial activity against Streptococcus pneumoniae Mef 2880; type: functional
[5] = system: Streptococcus pneumoniae; assay: Antibacterial activity against Streptococcus pneumoniae Erm 2218; type: functional
[6] = system: Streptococcus pneumoniae; assay: Antibacterial activity against Streptococcus pneumoniae Erm S 4297; type: functional
[7] = Plasma half life in Sprague-Dawley rat at 15 mg/kg, po; type: ADME, organism-based; set-up: dose 15 mg/kg, route oral
[8] = system: Streptococcus pneumoniae; assay: Antibacterial activity against Streptococcus pneumoniae Mef 6966; type: functional
[9] = system: Staphylococcus epidermidis; assay: Antibacterial activity against Staphylococcus epidermidis f50654; type: functional
[10] = system: Streptococcus pneumoniae; assay: Antibacterial activity against Streptococcus pneumoniae Mef 9142; type: functional
[11] = system: Streptococcus pneumoniae; assay: Antibacterial activity against Streptococcus pneumoniae Mef 1556; type: functional
[12] = system: Haemophilus influenzae; assay: Antibacterial activity against Haemophilus influenzae 49247; type: functional
[13] = Volume of distribution in Sprague-Dawley rat at 5 mg/kg, iv and 15 mg/kg, po; type: ADME, organism-based; conditions: in vivo, read-out: Vdss
[14] = system: Streptococcus pneumoniae; assay: Antibacterial activity against Streptococcus pneumoniae Erm 8947; type: functional
[15] = system: Streptococcus pneumoniae; assay: Antibacterial activity against Streptococcus pneumoniae Mef 4126; type: functional
[16] = system: Streptococcus pneumoniae; assay: Antibacterial activity against Streptococcus pneumoniae Mef 10095; type: functional
[17] = system: Streptococcus pneumoniae; assay: Antibacterial activity against Streptococcus pneumoniae Erm 8339; type: functional
[18] = system: Streptococcus pneumoniae; assay: Antibacterial activity against Streptococcus pneumoniae Mef 1566; type: functional
[19] = system: Streptococcus pneumoniae; assay: Antibacterial activity against Streptococcus pneumoniae Erm 6388; type: functional
[20] = system: Streptococcus pneumoniae; assay: Antibacterial activity against Streptococcus pneumoniae Erm 867; type: functional
[21] = system: Streptococcus pneumoniae; assay: Antibacterial activity against Streptococcus pneumoniae Mef 3449; type: functional
[22] = system: Streptococcus pneumoniae; assay: Antibacterial activity against Streptococcus pneumoniae Erm 6849; type: functional
[23] = Plasma half life in Sprague-Dawley rat at 5 mg/kg, iv; type: ADME, organism-based; set-up: dose 5 mg/kg, route intravenous
[24] = system: Streptococcus pneumoniae; assay: Antibacterial activity against Streptococcus pneumoniae Mef 5654; type: functional
[25] = system: Streptococcus pneumoniae; assay: Antibacterial activity against Streptococcus pneumoniae Erm 10279; type: functional
[26] = system: Streptococcus pneumoniae; assay: Antibacterial activity against Streptococcus pneumoniae Mef S 3435; type: functional; conditions: Streptococcus pneumoniae; read-out: MIC
[27] = system: Streptococcus pneumoniae; assay: Antibacterial activity against Streptococcus pneumoniae Mef S 3427; type: functional
[28] = system: Streptococcus pneumoniae; assay: Antibacterial activity against Streptococcus pneumoniae Erm 5354; type: functional
[29] = system: Streptococcus pneumoniae; assay: Antibacterial activity against Streptococcus pneumoniae Erm 5399; type: functional
[30] = system: Streptococcus pneumoniae; assay: Antibacterial activity against Streptococcus pneumoniae Erm 8919; type: functional
[31] = system: Streptococcus pneumoniae; assay: Antibacterial activity against Streptococcus pneumoniae Erm 6396; type: functional
[32] = system: Streptococcus pneumoniae; assay: Antibacterial activity against Streptococcus pneumoniae Mef 41; type: functional
[33] = system: Streptococcus pneumoniae; assay: Antibacterial activity against Streptococcus pneumoniae Mef 5649; type: functional
[34] = system: Streptococcus pneumoniae; assay: Antibacterial activity against Streptococcus pneumoniae Erm S 4085; type: functional
[35] = system: Staphylococcus aureus; assay: Antibacterial activity against Staphylococcus aureus 33591; type: functional
[36] = system: Streptococcus pneumoniae; assay: Antibacterial activity against Streptococcus pneumoniae Mef 1790; type: functional
[37] = system: Streptococcus pneumoniae; assay: Antibacterial activity against Streptococcus pneumoniae Mef 9959; type: functional
[38] = system: Staphylococcus epidermidis; assay: Antibacterial activity against Staphylococcus epidermidis 14990; type: functional
[39] = system: Rattus norvegicus; assay: Efficacy against Streptococcus pneumoniae Erm in Sprague-Dawley rat lung infection model at 100 mg/kg; type: functional, organism-based; set-up: dose 100 mg/kg
[40] = system: Rattus norvegicus; assay: Efficacy against Streptococcus pneumoniae Mef in Sprague-Dawley rat lung infection model at 50 mg/kg; type: functional, organism-based; set-up: dose 50 mg/kg
[41] = system: Streptococcus pneumoniae; assay: Antibacterial activity against Streptococcus pneumoniae Erm 4290; type: functional
[42] = system: Rattus norvegicus; assay: Plasma AUC in Sprague-Dawley rat at 5 mg/kg, iv; type: ADME, organism-based; set-up: dose 5 mg/kg, route intravenous; conditions: in vivo
[43] = system: Streptococcus pneumoniae; assay: Antibacterial activity against Streptococcus pneumoniae Erm 7985; type: functional
[44] = system: Haemophilus influenzae; assay: Antibacterial activity against Haemophilus influenzae 2762; type: functional
[45] = Lung half life in Sprague-Dawley rat at 15 mg/kg, po; type: ADME, organism-based; set-up: dose 15 mg/kg, route oral
[46] = system: Streptococcus pneumoniae; assay: Antibacterial activity against Streptococcus pneumoniae Erm 8257; type: functional
[47] = system: Streptococcus pyogenes; assay: Antibacterial activity against Streptococcus pyogenes 8668; type: functional
[48] = system: Rattus norvegicus; assay: Efficacy against Haemophilus influenzae in Sprague-Dawley rat lung infection model at 100 mg/kg; type: functional, organism-based; set-up: dose 100 mg/kg
[49] = system: Streptococcus pneumoniae; assay: Antibacterial activity against Streptococcus pneumoniae Erm 5590; type: functional
[50] = Oral bioavailability in Sprague-Dawley rat at 15 mg/kg, po; type: ADME, organism-based; conditions: in vivo
[51] = system: Streptococcus pneumoniae; assay: Antibacterial activity against Streptococcus pneumoniae Erm 5554; type: functional
[52] = Lung-to-plasma AUC ratio in Sprague-Dawley rat at 5 mg/kg, iv; type: ADME, organism-based; set-up: dose 5 mg/kg, route intravenous; conditions: lung and plasma
[53] = Oral bioavailability in Sprague-Dawley rat at 100 mg/kg, po; type: ADME, organism-based; conditions: in vivo
[54] = system: Streptococcus pneumoniae; assay: Antibacterial activity against Streptococcus pneumoniae 297-749; type: functional
[55] = system: Streptococcus pneumoniae; assay: Antibacterial activity against Streptococcus pneumoniae 49619; type: functional
[56] = system: Streptococcus pneumoniae; assay: Antibacterial activity against Streptococcus pneumoniae 280-962; type: functional
[57] = system: Streptococcus pneumoniae; assay: Antibacterial activity against Streptococcus pneumoniae Mef 4331; type: functional
[58] = system: Staphylococcus aureus; assay: Antibacterial activity against Staphylococcus aureus 29213; type: functional
[59] = system: Streptococcus pneumoniae; assay: Antibacterial activity against Streptococcus pneumoniae Mef 2382; type: functional
[60] = system: Enterococcus faecalis; assay: Antibacterial activity against Enterococcus faecalis 29212; type: functional
[61] = system: Streptococcus pneumoniae; assay: Antibacterial activity against Streptococcus pneumoniae Erm 5415; type: functional
[62] = system: Streptococcus pneumoniae; assay: Antibacterial activity against Streptococcus pneumoniae Mef 953; type: functional
[63] = system: Streptococcus pneumoniae; assay: Antibacterial activity against Streptococcus pneumoniae Erm 4589; type: functional
[64] = system: Streptococcus pneumoniae; assay: Antibacterial activity against Streptococcus pneumoniae Mef 983; type: functional

`C=C[C@]12OC(=O)N(CCCCn3cnc(-c4ccc(Cl)nc4)c3)[C@@H]1[C@@H](C)C(=O)[C@H](C)C[C@@](C)(OC)[C@H](O[C@@H]1O[C@H](C)C[C@H](N(C)C)[C@H]1O)[C@@H](C)C(=O)[C@@H](C)C(=O)O[C@@H]2CC` showed an MIC [1] of at most 0.05 µg/mL, an MIC [2] of 0.1 µg/mL (≈ 0.116 µM) and an MIC [3] of 0.05 µg/mL (≈ 0.0582 µM). It also gave an MIC [4] of at most 0.05 µg/mL, an MIC [5] of 0.025 µg/mL (≈ 0.0291 µM) and an MIC [6] of 0.025 µg/mL (≈ 0.0291 µM). For the same compound, the half-life [7] was 1.7 h, the MIC [8] was at most 0.05 µg/mL and the MIC [9] was at most 0.05 µg/mL. It also gave an MIC [10] of 0.1 µg/mL (≈ 0.116 µM), an MIC [11] of at most 0.05 µg/mL and an MIC [12] of 3.13 µg/mL (≈ 3.65 µM). It also gave a Vd [13] of 12 L/kg, an MIC [14] of 0.05 µg/mL (≈ 0.0582 µM) and an MIC [15] of at most 0.05 µg/mL. It also gave an MIC [16] of at most 0.05 µg/mL, an MIC [17] of 0.2 µg/mL (≈ 0.233 µM) and an MIC [18] of 0.1 µg/mL (≈ 0.116 µM). The MIC [19] was 0.4 µg/mL (≈ 0.466 µM), the MIC [20] was 0.025 µg/mL (≈ 0.0291 µM) and the MIC [21] was at most 0.05 µg/mL. The MIC [22] was 0.05 µg/mL (≈ 0.0582 µM), the half-life [23] was 1.3 h and the MIC [24] was 0.1 µg/mL (≈ 0.116 µM). For the same compound, the MIC [25] was 0.025 µg/mL (≈ 0.0291 µM), the MIC [26] was at most 0.05 µg/mL and the MIC [27] was at most 0.05 µg/mL. It also gave an MIC [28] of 0.025 µg/mL (≈ 0.0291 µM), an MIC [29] of 0.025 µg/mL (≈ 0.0291 µM) and an MIC [30] of 0.025 µg/mL (≈ 0.0291 µM). For the same compound, the MIC [31] was 0.05 µg/mL (≈ 0.0582 µM), the MIC [32] was 0.1 µg/mL (≈ 0.116 µM) and the MIC [33] was at most 0.05 µg/mL. The MIC [34] was at most 0.013 µg/mL, the MIC [35] was over 50 µg/mL and the MIC [36] was 0.1 µg/mL (≈ 0.116 µM). The MIC [37] was at most 0.05 µg/mL, the MIC [38] was at most 0.05 µg/mL and the Activity [39] was “Active”. The Activity [40] was “Active”, the MIC [41] was 0.025 µg/mL (≈ 0.0291 µM) and the AUC [42] was 2300 ng·h/mL. It also gave an MIC [43] of at most 0.013 µg/mL, an MIC [44] of 0.78 µg/mL (≈ 0.909 µM) and a half-life [45] of 1.4 h. For the same compound, the MIC [46] was at most 0.013 µg/mL, the MIC [47] was at most 0.05 µg/mL and the Activity [48] was “Active”. The MIC [49] was 0.025 µg/mL (≈ 0.0291 µM), the bioavailability [50] was 26% and the MIC [51] was 0.1 µg/mL (≈ 0.116 µM). It also gave a Kp [52] of 94, a bioavailability [53] of 91% and an MIC [54] of at most 0.05 µg/mL. For the same compound, the MIC [55] was at most 0.05 µg/mL, the MIC [56] was at most 0.05 µg/mL and the MIC [57] was 0.1 µg/mL (≈ 0.116 µM). For the same compound, the MIC [58] was at most 0.05 µg/mL, the MIC [59] was 0.1 µg/mL (≈ 0.116 µM) and the MIC [60] was at most 0.05 µg/mL. It also gave an MIC [61] of 0.025 µg/mL (≈ 0.0291 µM), an MIC [62] of at most 0.05 µg/mL and an MIC [63] of 0.025 µg/mL (≈ 0.0291 µM). It also gave an MIC [64] of 0.1 µg/mL (≈ 0.116 µM).

Reference: ChEMBL document CHEMBL1138190, “Synthesis and antibacterial activity of novel C12 vinyl ketolides” (J Med Chem, 2006)
